Data reported in article PMC8315922, “In Vitro Identification and In Vivo Confirmation of Inhibitors for Sweet Potato Chlorotic Stunt Virus RNA Silencing Suppressor, a Viral RNase III” (Journal of Virology, 2021).
pIC50, pKd: −log10 of the molar value. Read-outs that look alike come from different tables or passages of the source.

Experiments:
[1] = target: T1, CSR3 (RNase III of SPCSV) (Sweet potato chlorotic stunt virus, UniProt Q8JJW8); assay: Kinetic-based FRET dose-response assay (IC50, DSS); assay type: biochemical; conditions: for DSS Comm 1 / DSS FIMM1 / DSS FIMM 2: drug sensitivity score; for DSS Comm 1: repeat Comm 1; for DSS FIMM1: repeat FIMM 1; for DSS FIMM 2: repeat FIMM 2; for IC50: 1.25 nM to 50 μM, unit inferred
Method: A dose-response assay with six concentrations (1.25 nM to 50 μM) was carried out in three independent experiments, which included two tests with the 112 selected FIMM compounds (i.e., compounds prepared by the HTB-FIMM) and one test using the newly ordered commercial compounds (99 of the 112 compounds, i.e., compounds prepared by a second supplier). A dose-response curve was generated for each compound based on PI values as a function of the concentration.
The HTS assay was designed based on FRET using a 22-bp siRNA (forward sequence, […]; reverse sequence, […]) with a 2-nucleotide (nt) 3′ overhang labeled with the fluorescent dye 6-carboxyfluorescein (FAM) and a black hole quencher (BHQ1) on the sense strand (Metabion, Munich, Germany). Screening was initially carried out at one concentration (10 μM) in a 20-μl reaction buffer. […] All reaction mixtures contained 50 nM CSR3 and 375 nM labeled siRNA in 384-well black flat-bottom microplates (Corning, NY, USA) and were prepared using a BioTek MultiFlo FX dispenser with single-channel random access dispenser cassettes (BioTek, Winooski, VT, USA). The plates were read with a PHERAstar FS reader (BMG Labtech, Ortenberg, Germany).
(§1) For HTS, the activity of CSR3 was calculated by measuring the change in fluorescence as a function of the reaction time using MARS Data Analysis software (BMG Labtech). To evaluate the CSR3 inhibition efficiency of individual compounds, the PI of each compound was calculated using the slope values for the sample, positive control, and negative control according to the following equation: PI = 100 × [1 − (sample − positive)/(negative − positive)]%. IC50 and DSS values were calculated using concentration-specific PI values according to a previous study ([31]). Relative gene expression was calculated using the classical 2^−ΔΔ^CT method ([63]).

CSR3 [2] = target: T2, CSR3 (Sweet potato chlorotic stunt virus, UniProt Q8JJW8); assay: Binding affinity assay using MST; conditions: Table S4; for Binding (Yes/No): MST binding call; for Response Amplitude: MST response amplitude
T2 sequence (Q8JJW8 1-228): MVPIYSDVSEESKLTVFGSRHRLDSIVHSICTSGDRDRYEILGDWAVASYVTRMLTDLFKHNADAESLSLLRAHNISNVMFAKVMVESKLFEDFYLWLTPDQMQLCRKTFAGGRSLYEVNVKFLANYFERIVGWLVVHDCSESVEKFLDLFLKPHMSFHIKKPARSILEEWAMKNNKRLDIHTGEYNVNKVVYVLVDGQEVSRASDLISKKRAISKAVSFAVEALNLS
Method: (§2) Binding affinity assays were first carried out with the 99 commercial compounds using the MST method.
The labeled-protein solution containing 500 nM proteins and 40 nM dye was prepared in PBS buffer with 2% dimethyl sulfoxide (DMSO) for the assay. The 12 concentrations for each compound were obtained by 2-fold serial dilutions (0.2 μM to 400 μM). […] Two independent experiments were carried out in premium coated capillaries (NanoTemper, Munich, Germany) using a Monolith NT.Automated instrument (NanoTemper) with the power set at high (80%), the light-emitting diode (LED) power (pico red) set at 5%, and the on-time set at 20 s. The dissociation constant (Kd) was determined using the MO.Affinity Analysis program (NanoTemper).

SPFMV [3] = assay: Virus accumulation (RT-qPCR of coat protein RNA) in coinfected sweetpotato plants grown in culture medium: SPFMV; assay type: in vivo, Sweet potato feathery mottle virus
Method: (§3) Since tests in culture medium consume smaller amounts of compounds and can be carried out under relatively controlled conditions, sweetpotato plants coinfected with SPCSV and SPFMV were grown in medium supplemented with one of the 30 inhibitor candidates at a concentration of 50 μM. Their effects on plant growth were monitored by imaging the plants once a week. […] In addition, virus accumulation was quantified by measuring the relative abundance of the transcripts encoding viral coat proteins using RT-qPCR ([32]). The effect of individual compounds on virus accumulation was estimated by comparing treated and control plants.
(§4) Sweetpotato plants cultivar 'Huachano' (accession CIP420065) were side-graft inoculated with both SPFMV (East African strain isolate Nam1) and SPCSV-Ug (East African serotype 2) as described previously ([62]). Plantlets were propagated by taking single-node stems grown in a plant culture medium ([33]). Next, plantlets with newly formed roots were transferred to glass tubes (18 by 150 mm) containing 10 ml of medium supplemented with either 50 μM compound (diluted in DMSO; final DMSO concentration, 0.1%) or only 0.1% DMSO as a control. For plant experiments in soil, plantlets were transferred to pots (6 by 6 by 10 cm) filled with a mixture of sand, humus, and washed soil. After 1 week, plants were treated by foliar spraying using either individual compounds at a single concentration (10 μM) (treatment) or water (control/mock) twice a week for 1 month. All plants were grown at 22°C with 60% humidity and a 16-h light/8-h dark photoperiod for 28 days in culture medium and for 41 days in soil. The Finnish National Plant Phenotyping Infrastructure (NaPPI) was used to monitor plant viral disease symptoms as described in our previous study ([33]). Four compounds were tested with the phenotyping platform in two independent batches, each of which included five biological replicates.
(§5) Leaf samples were collected from plants grown in culture medium or soil for 28 or 41 days, respectively, and frozen in liquid nitrogen. Total RNA was extracted using the Spectrum plant total RNA kit (Sigma-Aldrich). First-strand cDNA was synthesized using the Transcriptor first-strand cDNA synthesis kit (Roche, Basel, Switzerland). […] All RT-qPCR experiments were conducted in triplicate on three and five biological replicates from plants grown in culture medium and soil, respectively. The primer list can be found in our previous study ([33]).
as §1

SPCSV [4] = assay: Virus accumulation (RT-qPCR of coat protein RNA) in coinfected sweetpotato plants grown in culture medium: SPCSV; assay type: in vivo, Sweet potato chlorotic stunt virus
Method: as §3, §4, §5, §1

SPCSV [5] = conditions: plants in soil, 10 μM foliar spray twice a week for 1 month, vs water-treated
Method: (§6) Compounds were administered by regular foliar spray over 1 month.
as §4
(§7) Leaf samples were collected from plants grown in culture medium or soil for 28 or 41 days, respectively, and frozen in liquid nitrogen. Total RNA was extracted using the Spectrum plant total RNA kit (Sigma-Aldrich). First-strand cDNA was synthesized using the Transcriptor first-strand cDNA synthesis kit (Roche, Basel, Switzerland). Gene expression was measured in a final volume of 10 μl (containing 2 μl 10-fold-diluted cDNA, 5 μl SYBR green I master mix [Roche], and 2.5 μM primers) using the LightCycler 480 instrument II (Roche). All RT-qPCR experiments were conducted in triplicate on three and five biological replicates from plants grown in culture medium and soil, respectively. The primer list can be found in our previous study ([33]).
as §1

SPFMV [6] = conditions: plants in soil, 10 μM foliar spray twice a week for 1 month, vs water-treated
Method: as §6, §4, §7, §1

sweetpotato plants = conditions: 50 μM in culture medium
[7] = test system: human enzymes or bacterial proteins; parameters: method as in earlier work; conditions: ref PubChem https://pubchem.ncbi.nlm.nih.gov/compound/7114450#section=Biological-Test-Results; cited from earlier work
[8] = target: T1, CSR3 (RNase III of SPCSV); assay: Kinetic-based HTS (FRET, labeled 22-bp siRNA cleavage), one concentration; assay type: biochemical; conditions: compound 10 μM, 375 nM siRNA, 37°C
Source text: Based on the catalytic activity of CSR3 on 22-bp siRNA, our kinetic-based HTS assay was designed using distance-dependent FRET technology. Specifically, one strand of siRNA, as a substrate, was labeled with a fluorescent dye (6-carboxyfluorescein [FAM]) at the 5′ end and a quencher (black hole quencher 1 [BHQ1]) at the 3′ end. The initial reaction rate of CSR3 was quantified using the slope of raw fluorescence under an excitation/emission spectrum at 485/520 nm (Fig. 3A). […] In this study, a total of 6,622 compounds (including 6,400 selected from Glide docking and 222 empirically selected compounds for preliminary assay setup) were screened using kinetic-based HTS at a final concentration of 10 μM. All 384-well screening plates contained 32 negative (with CSR3 [i.e., the substrate was successfully cleaved]) and 32 positive (without CSR3 [i.e., the substrate remained intact]) control reaction mixtures. To evaluate the quality of the HTS assay, the Z-factor (Z′) parameter was calculated using the reaction rates of the positive and negative controls ([30]). […]
The HTS assay was designed based on FRET using a 22-bp siRNA (forward sequence, […]; reverse sequence, […]) with a 2-nucleotide (nt) 3′ overhang labeled with the fluorescent dye 6-carboxyfluorescein (FAM) and a black hole quencher (BHQ1) on the sense strand (Metabion, Munich, Germany). […] The plates were read with a PHERAstar FS reader (BMG Labtech, Ortenberg, Germany).
as §1

CSR3 [9] = target: T2, CSR3; assay: Binding affinity assay using SPR; conditions: SPR dose-response 3 μM to 200 μM, 25°C; unit inferred, numbers match M (cf. Fig 5A); read-out: Steady State Affinity
Method: as §2
CSR3 was purified as described above and stored in PBS buffer. SPR was performed on a BiacoreT100 instrument (GE Healthcare) using a sensor S CM5 chip (GE Healthcare). CSR3 (10 ng/μl) was immobilized using the standard amine-coupling method according to the manufacturer’s instructions with immobilization buffer (10 mM sodium acetate [pH 4]); the final response unit (RU) value was 11,459. Compounds at a single concentration (100 μM) or consisting of 2-fold serial dilutions (3 μM to 200 μM) were flowed over the sensor surface using PBS buffer with 0.01 M HEPES, 0.05% surfactant P20, and 2% DMSO. […] To eliminate bulk interference by DMSO, a solvent correction consisting of DMSO at concentrations ranging from 1.5% to 2.8% was carried out for every 30 samples. Steady-state affinity (KD) values were determined using BiacoreT100 Evaluation software, v.2.04 (GE Healthcare).

[10] = target: RNase III of Sweet potato chlorotic stunt virus (CSR3), His-tagged full-length (Sweet potato chlorotic stunt virus (SPCSV)); assay: native gel or EMSA; native Western blotting of purified CSR3, detected with rabbit polyclonal antibodies against CSR3; monomer to dimer
[11] = kinetic-based HTS, Fig 5A summary
[12] = 50 μM in culture medium, 28 days, relative to DMSO control
[13] = plants in culture medium, 50 μM

Molecule: O=C(O)c1ccc2c(c1)C1C=CCC1C(c1ccccc1)N2 (stereo not shown) [FIMM005536]
- DSS Comm 1 [1]: 12.4
- DSS FIMM1 [1]: 12.5
- DSS FIMM 2 [1]: 12.1
- DSS [1, 11]: 12.5
- pIC50 [1, 11]: ~5.56
- IC50 ([1]; read-out: IC50 Comm 1, repeat Comm 1 (commercial compounds), numbers match nM): 2880 nM
- IC50 ([1]; read-out: IC50 FIMM1, repeat FIMM 1 (FIMM library compounds), numbers match nM (cf. Fig 5A)): 2750 nM
- IC50 ([1]; read-out: IC50 FIMM 2, repeat FIMM 2 (FIMM library compounds), numbers match nM): 2930 nM
- Binding (Yes/No) (CSR3 [2]): No
- Response Amplitude (CSR3 [2]): 0
- SPFMV_FC (fold change of viral accumulation) (SPFMV [3]; [12]): 0.2931
- SPFMV accumulation reduced (SPFMV [3]; [13]): ~4 fold
- viral titer SPFMV (log2 fold change relative to controls) (SPFMV [3]; [13]): −1.77
- SPCSV_FC (fold change of viral accumulation) (SPCSV [4]; [12]): 0.1274
- SPCSV accumulation reduced (SPCSV [4]; [13]): approximately 8 fold
- viral titer SPCSV (log2 fold change relative to controls) (SPCSV [4]; [13]): −2.97
- log2 fold change in coat protein expression of SPCSV (SPCSV [5]): −1.67
- log2 fold change in coat protein expression of SPFMV (SPFMV [6]): −1.36
- Toxicity (sweetpotato plants): no
- activity in inhibitor screens for human enzymes or bacterial proteins [7]: inactive

Molecule: Cc1ccc(C)c(C(=O)CSc2nnc[nH]2)c1 [FIMM027745]
- PI values (percentage of inhibition) [8]: 98.0616%
- DSS Comm 1 [1]: 1.9
- DSS FIMM1 [1]: 19.2
- DSS FIMM 2 [1]: 16.7
- IC50 ([1]; repeat Comm 1 (commercial compounds), numbers match nM, read-out: IC50 Comm 1): 14900 nM
- IC50 ([1]; repeat FIMM 1 (FIMM library compounds), numbers match nM (cf. Fig 5A), read-out: IC50 FIMM1): 647 nM
- IC50 ([1]; repeat FIMM 2 (FIMM library compounds), numbers match nM, read-out: IC50 FIMM 2): 1120 nM
- Binding (Yes/No) (CSR3 [2]): No
- Response Amplitude (CSR3 [2]): 0
- pKd (CSR3 [9]): 4.89

Molecule: RNase III of Sweet potato chlorotic stunt virus (CSR3), His-tagged full-length (enzyme)
- stoichiometry N [10]: 2
